Results from ChEMBL document CHEMBL5500372, “Novel natural osthole-inspired amphiphiles as membrane targeting antibacterials against methicillin-resistant Staphylococcus aureus (MRSA)” (Eur J Med Chem, 2024).
Calls of active or inactive are those of the source. No cut-off for these calls is given here.

Columns and labels:
[1] = system: Staphylococcus aureus; assay: Antibacterial activity against methicillin-resistant Staphylococcus aureus clinical isolate 16 measured after 18 hrs by CLSI based broth microdilution method; format: functional
[2] = system: Staphylococcus aureus; assay: Antibacterial activity against methicillin-resistant Staphylococcus aureus clinical isolate 11 measured after 18 hrs by CLSI based broth microdilution method; format: functional
[3] = system: Staphylococcus aureus; assay: Antibacterial activity against methicillin-resistant Staphylococcus aureus clinical isolate 22 measured after 18 hrs by CLSI based broth microdilution method; format: functional
[4] = system: Escherichia coli; assay: Antibacterial activity against Escherichia coli ATCC 25922 measured after 18 hrs by CLSI based broth microdilution method; format: functional
[5] = Hemolytic activity in sheep erythrocyte assessed as hemolysis incubated for 1 hr by absorbance based analysis; format: toxicity, cell-based, Ovis aries; settings: sheep erythrocytes
[6] = system: Cell membrane; assay: Disruption of cell membrane in methicillin-resistant Staphylococcus aureus clinical isolate 16 assessed as appearance of broken surface at 16 ug/ml measured after 4 hrs by SEM analysis; format: cell membranes; settings: dose 16.0 µg/ml
[7] = system: Cell membrane; assay: Induction of cell membrane disruption in methicillin-resistant Staphylococcus aureus clinical isolate 16 assessed as intact cells (Q3 region) at 8 ug/ml measured after 2 hrs by SYTO-9 and PI staining based flow cytometry analysis (reference value: 96.0%); format: cell membranes; settings: dose 8.0 µg/ml
[8] = system: Cell membrane; assay: Induction of cell membrane disruption in methicillin-resistant Staphylococcus aureus clinical isolate 16 assessed as intact cells (Q3 region) at 32 ug/ml measured after 2 hrs by SYTO-9 and PI staining based flow cytometry analysis (reference value: 96.0%); format: cell membranes; settings: dose 32.0 µg/ml
[9] = system: Cell membrane; assay: Induction of cell membrane disruption in methicillin-resistant Staphylococcus aureus clinical isolate 16 assessed as dead cells (Q1 region) at 32 ug/ml measured after 2 hrs by SYTO-9 and PI staining based flow cytometry analysis (reference value: 0%); format: cell membranes; settings: dose 32.0 µg/ml
[10] = system: Staphylococcus aureus; assay: Antibacterial activity against methicillin-resistant Staphylococcus aureus clinical isolate 16 measured after 18 hrs in presence of phosphatidylglycerol by checkerboard broth dilution method; format: functional
[11] = system: Staphylococcus aureus; assay: Antibacterial activity against methicillin-resistant Staphylococcus aureus clinical isolate 16 measured after 18 hrs in presence of phosphatidylethanolamine by checkerboard broth dilution method; format: functional, organism-based
[12] = system: Cell membrane; assay: Disruption of cell membrane in methicillin-resistant Staphylococcus aureus clinical isolate 16 assessed as increase in intracellular ROS level incubated for 50 mins by DCFH-DA staining based fluorescence assay; format: cell membranes
[13] = system: Cell membrane; assay: Disruption of cell membrane in methicillin-resistant Staphylococcus aureus clinical isolate 16 assessed as increase in protein leakage incubated for 4 hrs by microspectrophotometric analysis; format: cell membranes; settings: dose <= 8.0 µg/ml
[14] = Toxicity in female KM mouse assessed as effect on white blood cell at upto 20 mg/kg, sc measured after 24 hrs; format: organism-based; settings: in vivo
[15] = Toxicity in female KM mouse assessed as effect on UREA at upto 20 mg/kg, sc measured after 24 hrs by biochemical test; format: organism-based; settings: in vivo
[16] = Toxicity in female KM mouse assessed as effect on back skin at 20 mg/kg, sc measured after 24 hrs by H and E staining based analysis; format: organism-based; settings: in vivo
[17] = Toxicity in female KM mouse assessed as effect on histopathological abnormalities in heart at 20 mg/kg, sc measured after 24 hrs by H and E staining based analysis; format: organism-based; settings: in vivo
[18] = Toxicity in female KM mouse assessed as effect on histopathological abnormalities in spleen at 20 mg/kg, sc measured after 24 hrs by H and E staining based analysis; format: organism-based; settings: in vivo
[19] = system: Staphylococcus aureus; assay: Antibacterial activity against methicillin-resistant Staphylococcus aureus clinical isolate 16 infected in female KM mouse skin abscess model assessed as healthy skin on back at 10 mg/kg, sc measured after 24 hrs; format: functional, organism-based
[20] = system: Staphylococcus aureus; assay: Antibacterial activity against methicillin-resistant Staphylococcus aureus clinical isolate 16 infected in female KM mouse skin abscess model assessed as effect on abscess in back skin at 5 mg/kg, sc measured after 24 hrs; format: functional, organism-based
[21] = system: Staphylococcus aureus; assay: Antibacterial activity against methicillin-resistant Staphylococcus aureus clinical isolate 16 infected in female KM mouse skin abscess model assessed as reduction in bacterial load at 5 mg/kg, sc measured after 24 hrs relative to control; format: functional; set-up: scale not given: the % may be the effect or the level left
[22] = system: Staphylococcus aureus; assay: Antibacterial activity against methicillin-resistant Staphylococcus aureus clinical isolate 16 infected in female KM mouse skin abscess model assessed as log reduction in bacterial load at 10 mg/kg, sc measured after 24 hrs (reference value: 8.508 log10CFU/g); format: functional
[23] = system: Staphylococcus aureus; assay: Antibacterial activity against methicillin-resistant Staphylococcus aureus clinical isolate 16 infected in female KM mouse skin abscess model assessed as log reduction in bacterial load at 5 mg/kg, sc measured after 24 hrs (reference value: 8.508 log10CFU/g); format: functional
[24] = system: Staphylococcus aureus; assay: Antibacterial activity against methicillin-resistant Staphylococcus aureus clinical isolate 16 infected in female KM mouse skin abscess model assessed as reduction in IL-6 level at 5 to 10 mg/kg, sc measured after 24 hrs by ELISA method; format: functional, organism-based; settings: dose 5-10 mg/kg
[25] = Toxicity in female KM mouse skin abscess model infected with methicillin-resistant Staphylococcus aureus clinical isolate 16 assessed as effect on kidney at 5 to 10 mg/kg, sc measured after 24 hrs by H and E staining based analysis; format: organism-based; settings: in vivo, dose 5-10 mg/kg
[26] = Toxicity in female KM mouse skin abscess model infected with methicillin-resistant Staphylococcus aureus clinical isolate 16 assessed as histological abnormalities in lung at 5 to 10 mg/kg, sc measured after 24 hrs by H and E staining based analysis; format: organism-based; settings: in vivo, dose 5-10 mg/kg

## CCCCCCNC(=O)C[N+](C)(C)CCCCCOc1ccc2ccc(=O)oc2c1CC=C(C)C.[Br-]
[1]
  MIC: 1 µg/mL
[2]
  MIC: 1 µg/mL
[3]
  MIC: 1 µg/mL
[4]
  MIC: 32 µg/mL
[5]
  HC50 at 1 h: 1040 µg/mL
[6]
  Activity: Active
[7]
  Activity: 45.3%
[8]
  Activity: 0.05%
[9]
  Activity: 61.7%
[10]
  MIC: 64 µg/mL
[11]
  Activity: Active
[12]
  Activity: Dose-Dependent Effect
[13]
  Activity: Dose-Dependent Effect
[14]
  Activity: Non-Toxic
[15]
  Activity: Non-Toxic
[16]
  Activity: Non-Toxic
[17]
  Activity: Non-Toxic
[18]
  Activity: Non-Toxic
[19]
  Activity: Active
[20]
  Activity: Active
[21]
  Activity: 99.86%
[22]
  Activity: 4.458 log10CFU/g
[23]
  Activity: 2.962 log10CFU/g
[24]
  Activity: Active
[25]
  Activity: Non-Toxic
[26]
  Activity: Non-Toxic
